Data as given in US5672715A, “Herbicidal substituted 3-aryl-pyrazoles” (Monsanto Company, priority 1995, dated 1997).
Where two headings read alike, the source gives them in different places.

Key:
Type in all cases: in vivo
Rice = experiment: pre-emergence herbicide test; conditions: Oryza sativa, read-out: % plant inhibition; for inhibition at 1000.92 g/ha: 0.893 lb/A; for inhibition at 5043.82 g/ha: 4.5 lb/A
Outline: (§1)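 Herbicidal effect was assessed as percent inhibition about 14 days after sowing. A known amount of compound was added to the covering topsoil, and the pans were subirrigated in a greenhouse.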

Yellow Foxtail [1] = experiment: pre-emergence herbicide test; conditions: Setaria, read-out: % plant inhibition; for inhibition at 1000.92 g/ha: 0.893 lb/A; for inhibition at 5043.82 g/ha: 4.5 lb/A
Outline: as §1

Velvetleaf [2] = experiment: pre-emergence herbicide test; conditions: Abutilon theophrasti, pre-emergence, read-out: % plant inhibition; for inhibition at 1000.92 g/ha: 0.893 lb/A; for inhibition at 5043.82 g/ha: 4.5 lb/A
Outline: as §1

Soybean = experiment: post-emergence herbicide test; conditions: Glycine max, post-emergence, read-out: % plant inhibition; for inhibition at 200.072 g/ha: 0.1785 lb/A; for inhibition at 1000.92 g/ha: 0.893 lb/A; for inhibition at 5043.82 g/ha: 4.5 lb/A
Outline: (§2)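 Post-emergence activity is given as percent inhibition per species. Test compounds were atomizer-sprayed at 170.3 kPa, 1870 L/Ha carrier volume and roughly 0.4% v/v emulsifier onto greenhouse-raised plants aged two to three weeks, at the stated rates.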

Cocklebur = experiment: post-emergence herbicide test; conditions: Xanthium strumarium, post-emergence, read-out: % plant inhibition; for inhibition at 200.072 g/ha: 0.1785 lb/A; for inhibition at 1000.92 g/ha: 0.893 lb/A; for inhibition at 5043.82 g/ha: 4.5 lb/A
Outline: as §2

Morning Glory = experiment: post-emergence herbicide test; conditions: Ipomoea, post-emergence, read-out: % plant inhibition; for inhibition at 200.072 g/ha: 0.1785 lb/A; for inhibition at 1000.92 g/ha: 0.893 lb/A; for inhibition at 5043.82 g/ha: 4.5 lb/A
Outline: as §2

Yellow Nutsedge = experiment: post-emergence herbicide test; conditions: Cyperus, read-out: % plant inhibition; for inhibition at 200.072 g/ha: 0.1785 lb/A; for inhibition at 1000.92 g/ha: 0.893 lb/A; for inhibition at 5043.82 g/ha: 4.5 lb/A
Outline: as §2

Common Chickweed = experiment: post-emergence herbicide test; conditions: post-emergence, read-out: % plant inhibition; for inhibition at 200.072 g/ha: 0.1785 lb/A; for inhibition at 1000.92 g/ha: 0.893 lb/A; for inhibition at 5043.82 g/ha: 4.5 lb/A
Outline: as §2

Corn = experiment: post-emergence herbicide test; conditions: Zea mays, post-emergence, read-out: % plant inhibition; for inhibition at 200.072 g/ha: 0.1785 lb/A; for inhibition at 1000.92 g/ha: 0.893 lb/A; for inhibition at 5043.82 g/ha: 4.5 lb/A
Outline: as §2

Bedstraw Catchweed = experiment: post-emergence herbicide test; conditions: Galium aparine, post-emergence, read-out: % plant inhibition; for inhibition at 200.072 g/ha: 0.1785 lb/A; for inhibition at 1000.92 g/ha: 0.893 lb/A; for inhibition at 5043.82 g/ha: 4.5 lb/A
Outline: as §2

Barnyardgrass = experiment: post-emergence herbicide test; conditions: Echinochloa crus-galli, post-emergence, read-out: % plant inhibition; for inhibition at 200.072 g/ha: 0.1785 lb/A; for inhibition at 1000.92 g/ha: 0.893 lb/A; for inhibition at 5043.82 g/ha: 4.5 lb/A
Outline: as §2

Yellow Foxtail [3] = experiment: post-emergence herbicide test; conditions: Setaria, read-out: % plant inhibition; for inhibition at 200.072 g/ha: 0.1785 lb/A; for inhibition at 1000.92 g/ha: 0.893 lb/A; for inhibition at 5043.82 g/ha: 4.5 lb/A
Outline: as §2

Blackgrass = experiment: post-emergence herbicide test; conditions: Alopecurus myosuroides, post-emergence, read-out: % plant inhibition; for inhibition at 200.072 g/ha: 0.1785 lb/A; for inhibition at 1000.92 g/ha: 0.893 lb/A; for inhibition at 5043.82 g/ha: 4.5 lb/A
Outline: as §2

Wheat = experiment: post-emergence herbicide test; conditions: Triticum aestivum, post-emergence, read-out: % plant inhibition; for inhibition at 200.072 g/ha: 0.1785 lb/A; for inhibition at 1000.92 g/ha: 0.893 lb/A; for inhibition at 5043.82 g/ha: 4.5 lb/A
Outline: as §2

Velvetleaf [4] = experiment: post-emergence herbicide test; conditions: Abutilon theophrasti, post-emergence, read-out: % plant inhibition; for inhibition at 200.072 g/ha: 0.1785 lb/A; for inhibition at 1000.92 g/ha: 0.893 lb/A; for inhibition at 5043.82 g/ha: 4.5 lb/A
Outline: as §2

Compound Cc1c(-c2cc(F)ccc2F)nn(C)c1C(F)(F)F [Compound 1, 3-(2,5-Difluorophenyl)-1,4-dimethyl-5-(trifluoromethyl)-1H-pyrazole] has an inhibition at 1000.92 g/ha (Rice) of 25%, an inhibition at 5043.82 g/ha (Rice) of 0% and an inhibition at 1000.92 g/ha (Yellow Foxtail [1]) of 0%. It also gave an inhibition at 5043.82 g/ha (Yellow Foxtail [1]) of 35%, an inhibition at 1000.92 g/ha (Velvetleaf [2]) of 0% and an inhibition at 5043.82 g/ha (Velvetleaf [2]) of 65%. The inhibition at 200.072 g/ha (Soybean) was 0%, the inhibition at 1000.92 g/ha (Soybean) was 0% and the inhibition at 5043.82 g/ha (Soybean) was 0%. The inhibition at 200.072 g/ha (Cocklebur) was 0%, the inhibition at 1000.92 g/ha (Cocklebur) was 0% and the inhibition at 5043.82 g/ha (Cocklebur) was 0%. For the same compound, the inhibition at 200.072 g/ha (Morning Glory) was 0%, the inhibition at 1000.92 g/ha (Morning Glory) was 0% and the inhibition at 5043.82 g/ha (Morning Glory) was 15%. The inhibition at 200.072 g/ha (Yellow Nutsedge) was 0%, the inhibition at 1000.92 g/ha (Yellow Nutsedge) was 0% and the inhibition at 5043.82 g/ha (Yellow Nutsedge) was 30%. It also gave an inhibition at 200.072 g/ha (Common Chickweed) of 0%, an inhibition at 1000.92 g/ha (Common Chickweed) of 0% and an inhibition at 5043.82 g/ha (Common Chickweed) of 40%. For the same compound, the inhibition at 200.072 g/ha (Corn) was 0%, the inhibition at 1000.92 g/ha (Corn) was 0% and the inhibition at 5043.82 g/ha (Corn) was 40%. It also gave an inhibition at 200.072 g/ha (Bedstraw Catchweed) of 0%, an inhibition at 1000.92 g/ha (Bedstraw Catchweed) of 0% and an inhibition at 5043.82 g/ha (Bedstraw Catchweed) of 30%. For the same compound, the inhibition at 200.072 g/ha (Barnyardgrass) was 0%, the inhibition at 1000.92 g/ha (Barnyardgrass) was 0% and the inhibition at 5043.82 g/ha (Barnyardgrass) was 0%. The inhibition at 200.072 g/ha (Yellow Foxtail [3]) was 0%, the inhibition at 1000.92 g/ha (Yellow Foxtail [3]) was 0% and the inhibition at 5043.82 g/ha (Yellow Foxtail [3]) was 50%. It also gave an inhibition at 200.072 g/ha (Blackgrass; Table 4a) of 0%, an inhibition at 200.072 g/ha (Blackgrass; Table 5a) of 0% and an inhibition at 1000.92 g/ha (Blackgrass; Table 4a) of 0%. It also gave an inhibition at 1000.92 g/ha (Blackgrass; Table 5a) of 0%, an inhibition at 5043.82 g/ha (Blackgrass; Table 4a) of 0% and an inhibition at 5043.82 g/ha (Blackgrass; Table 5a) of 35%. For the same compound, the inhibition at 200.072 g/ha (Wheat) was 0%, the inhibition at 1000.92 g/ha (Wheat) was 0% and the inhibition at 5043.82 g/ha (Wheat) was 10%. For the same compound, the inhibition at 200.072 g/ha (Velvetleaf [4]) was 0%, the inhibition at 1000.92 g/ha (Velvetleaf [4]) was 0% and the inhibition at 5043.82 g/ha (Velvetleaf [4]) was 20%.

Cn1nc(-c2cc(F)ccc2F)c(C=O)c1C(F)(F)F [Compound 34] gave an inhibition at 200.072 g/ha (Rice; 0.1785 lb/A) of 0%, an inhibition at 1000.92 g/ha (Rice) of 0% and an inhibition at 5043.82 g/ha (Rice) of 0%. It also gave an inhibition at 200.072 g/ha (Yellow Foxtail [1]; 0.1785 lb/A) of 0%, an inhibition at 1000.92 g/ha (Yellow Foxtail [1]) of 0% and an inhibition at 5043.82 g/ha (Yellow Foxtail [1]) of 20%. For the same compound, the inhibition at 200.072 g/ha (Velvetleaf [2]; 0.1785 lb/A) was 0%, the inhibition at 1000.92 g/ha (Velvetleaf [2]) was 15% and the inhibition at 5043.82 g/ha (Velvetleaf [2]) was 75%. For the same compound, the inhibition at 200.072 g/ha (Soybean) was 0%, the inhibition at 1000.92 g/ha (Soybean) was 10% and the inhibition at 5043.82 g/ha (Soybean) was 15%. The inhibition at 200.072 g/ha (Cocklebur) was 0%, the inhibition at 1000.92 g/ha (Cocklebur) was 0% and the inhibition at 5043.82 g/ha (Cocklebur) was 25%. It also gave an inhibition at 200.072 g/ha (Morning Glory) of 0%, an inhibition at 1000.92 g/ha (Morning Glory) of 0% and an inhibition at 5043.82 g/ha (Morning Glory) of 55%. The inhibition at 200.072 g/ha (Yellow Nutsedge) was 0%, the inhibition at 1000.92 g/ha (Yellow Nutsedge) was 0% and the inhibition at 5043.82 g/ha (Yellow Nutsedge) was 0%. The inhibition at 200.072 g/ha (Common Chickweed) was 0%, the inhibition at 1000.92 g/ha (Common Chickweed) was 0% and the inhibition at 5043.82 g/ha (Common Chickweed) was 0%. For the same compound, the inhibition at 200.072 g/ha (Corn) was 0%, the inhibition at 1000.92 g/ha (Corn) was 0% and the inhibition at 5043.82 g/ha (Corn) was 15%. The inhibition at 200.072 g/ha (Bedstraw Catchweed) was 0%, the inhibition at 1000.92 g/ha (Bedstraw Catchweed) was 0% and the inhibition at 5043.82 g/ha (Bedstraw Catchweed) was 80%. It also gave an inhibition at 200.072 g/ha (Barnyardgrass) of 0%, an inhibition at 1000.92 g/ha (Barnyardgrass) of 0% and an inhibition at 5043.82 g/ha (Barnyardgrass) of 10%. The inhibition at 200.072 g/ha (Yellow Foxtail [3]) was 0%, the inhibition at 1000.92 g/ha (Yellow Foxtail [3]) was 0% and the inhibition at 5043.82 g/ha (Yellow Foxtail [3]) was 0%. It also gave an inhibition at 200.072 g/ha (Blackgrass; Table 4a) of 0%, an inhibition at 200.072 g/ha (Blackgrass; Table 5a) of 0% and an inhibition at 1000.92 g/ha (Blackgrass; Table 4a) of 0%. It also gave an inhibition at 1000.92 g/ha (Blackgrass; Table 5a) of 0%, an inhibition at 5043.82 g/ha (Blackgrass; Table 4a) of 0% and an inhibition at 5043.82 g/ha (Blackgrass; Table 5a) of 30%. The inhibition at 200.072 g/ha (Wheat) was 0%, the inhibition at 1000.92 g/ha (Wheat) was 0% and the inhibition at 5043.82 g/ha (Wheat) was 10%. The inhibition at 200.072 g/ha (Velvetleaf [4]) was 0%, the inhibition at 1000.92 g/ha (Velvetleaf [4]) was 0% and the inhibition at 5043.82 g/ha (Velvetleaf [4]) was 20%.
